Laboratory results published in patent publication US12497396B2, “Nitrogen-containing heterocyclic derivatives, method therefor and application therefor as inhibitors of KRAS G12C for the treatment of cancers” (SHANGHAI HANSOH BIOMEDICAL CO., LTD., priority 2019, dated 2025).

How the values were obtained:
[1] = Plasma stability, dog plasma; assay type: in vitro ADME; details: dog plasma, 37° C.
Protocol: (§1) Animal or human whole blood was collected, then the blood was put into a test tube containing anticoagulant, centrifuged at 3500 rpm for 10 min, and the upper layer of pale yellow plasma was collected. • 2), 10 μM of tested compound (m/M/V=C)
(§2) The compound was weighed, the stock solution was prepared with DMSO and the working solution was prepared with 100 mM phosphate buffer. • 3), 10 μM of positive control (1) Propantheline (Propantheline Mr=449.4 Da)
(§3) • 1) 285 μL of plasma and 15 μL of 10 μM compound (tested compound) were added in turn in a 96-well plate, and incubated at 37° C. • 2) 40 μL was taken out at 0, 15, 30, 60, 90, 120 min, respectively, and 160 μL of acetonitrile termination solution containing internal standard was added. • 3) After centrifugation (3500 rpm, 10 min), 50 μL of supernatant was taken out, and then diluted with 50 μL DDH2O and injected to LC-MS/MS.
(§4) • Instrument: Shimadzu LC-20 AD • Chromatographic column: phenomenex Gemiu® C18 (50*4.6 mm, 5 μM particle size); • mobile phase: A: acetonitrile, B: 0.1% formic acid solution […], 2.0-2.1 min: 90% A→5% A; flow rate: 0.8 mL/min; running time: 5.0 min; injection volume: 5 μL.
(§5) • Instrument: API4000 Liquid Chromatography-Mass Spectrometry, AB, USA; • the ion source was electrospray ionization source (ESI); • the temperature of dry gas (N2) was 500° C.; • electrospray voltage was 5500V; • the detection method was positive ion detection; • the scanning mode was selective response monitoring (MRM). • the scanning time was 0.1 s.

[2] = Plasma stability, rat plasma; assay type: in vitro ADME; details: rat plasma, 37° C.
Protocol: as §1, §2, §3, §4, §5

in vitro = in vitro ADME
Protocol: as §1, §2, §3, §4, §5

in vivo = details: male, Balb/c, mouse, po, 10 mg/kg
Protocol: 5 g of Hydroxyethyl cellulose (HEC, CMC-Na, viscosity: 800-1200 Cps) was weighed, dissolved in 1000 mL of purified water, and 10 g of Tween 80 was added. The mixture was mixed well to form a clear solution.
The embodiment compounds were weighed and added into 4-mL glass bottles, respectively, 2.4 mL of the solution was added, and ultrasound was performed for 10 minutes to obtain a colorless clear solution with a concentration of 1 mg/mL.
Balb/C mice, males; PO, after overnight fasting, respectively, at a dose of 10 mg/kg, administered in a volume of 10 mL/kg.
Blood samples were collected before administration and 0.083 h, 0.25 h, 0.5 h, 1 h, 2 h, 4 h, 6 h and 8 h after administration, the blood was placed in EDTA-2K tube, centrifuged at 4° C. 6000 rpm for 6 min to separate plasma, and stored at −80° C.; food was consumed 4 hours after drug administration.

[3] = test system: NCI-H358 cells (KRAS G12C mutant cell line); assay: Inhibition of NCI-H358 cell proliferation (CellTiter-Glo, 72 h); assay type: cell-based, human; details: Homo sapiens
From the text: (§6) As a preferred embodiment of the present disclosure, the detection method of NCI-H358 cell proliferation inhibitory activity and Mia PaCa-2 cell proliferation inhibitory activity is as follows: through cell culture, adding different concentrations of compound solutions to the cultured cells, continuing the culture for a period of time and measuring the cell proliferation; • further, the method of cell culture is: adjusting the cells to a suitable cell concentration with complete medium and spreading the cell suspension in well plates for culture; preferably, the culture conditions are 37° C., 5% CO2 incubator overnight; preferably, the cell suspension is spread in 96-well plates, 48-well plates, 24-well plates, 12-well plates or 6-well plates, more preferably 96-well plates; preferably, the suitable cell concentration is 1500-4000 cells/well, with 90 μL of cell suspension added to each well; • further, the compound solution is prepared with DMSO and may be further diluted with medium; preferably, the compound solution has a concentration gradient starting from 100 μM at 4-fold dilution, more preferably starting from 30 μM at 4-fold dilution, most preferably starting from 10 μM at 4-fold dilution; • further, the volume of the compound solution or solvent added to each well is 1-10 μL, preferably 10 μL; • further, after adding the compound solution, the conditions for continuing the culture are 37° C., 5% CO2 incubator; preferably, the culture time is 24-72 h, more preferably 72 h; • further, the method for measuring cell proliferation is MTT, CCK8, CellTiter-Glo; preferably the method is CellTiter-Glo; • further, the cell proliferation is read using a microplate reader, more preferably a BioTek Synergy H1 microplate reader.
(§7) When NCI-H358 or Mia PaCa-2 cells were cultured to the appropriate fusion level, the NCI-H358 or Mia PaCa-2 cells were collected, and the cells were adjusted to the appropriate cell concentration using a complete medium, and the cell suspension was spread in a 96-well plate, 90 μL per well, and placed in a 37° C., 5% CO2 incubator overnight; and compound solutions of different concentrations were prepared using DMSO and culture medium; and a solvent control was set, the compound solution was added to a 96-well plate, 10 μL per well, at 37° C. in a 5% CO2 incubator for 72 hours; CellTiter-Glo solution was added thereto and the mixture was mixed well by shaking, incubated for 10 min in the dark, and read by BioTek Synergy H1 microplate reader.
(§8) The luminescence signal values were used to calculate the inhibition rate, the concentration and the inhibition rate were fitted to a nonlinear regression curve using Graphpad Prism software, then the IC50 value was obtained.

human KRAS G12C protein = target: T1, human KRAS G12C protein (Homo sapiens, UniProt P01116, G12C); assay: Thermal shift: melting temperature of KRAS G12C protein; assay type: binding; details: for Tm (° C.): KRAS G12C protein 5.37 μM with compound 10 μM, 1 hour incubation; for ΔTm at 10 µM: compound 10 μM, Tm minus Tm of DMSO solvent control
T1 construct: purchased Beijing SinoBiological Co., Ltd. 12259-H07E2
Protocol: A solution containing […] (pH 7.5), 1 mM DTT, 5×SYPRO Orange and 150 mM NaCl was prepared as the experimental buffer, and a final concentration of 5.37 μM human KRAS G12C protein was added thereto. […] After incubating at room temperature in the dark for 1 hour, the PCR tube was put into the PCR instrument, QuantStudio Software v1.3 was opened, and the melting temperature of KRAS G12C protein in different treatment groups was detected by melt curve function (heating from 25° C. to 95° C., 0.03° C./s). The experimental data file of PCR instrument was imported into thermal shift software, and the melting temperature (Tm) of each treatment group was obtained, and the change value of melting temperature (Δ Tm) was obtained by subtracting the Tm of DMSO solvent control group.

[4] = test system: Mia PaCa-2 cells (KRAS G12C mutant cell line); assay: Inhibition of Mia PaCa-2 cell proliferation (CellTiter-Glo, 72 h); assay type: cell-based, human; details: Homo sapiens
From the text: as §6, §7, §8

Structure (SMILES) | Residual rate (%) 0 min [1] [%] | Residual rate (%) 15 min [1] [%] | Residual rate (%) 30 min [1] [%] | Residual rate (%) 60 min [1] [%] | Residual rate (%) 120 min [1] [%] | Residual rate (%) 0 min [2] [%] | Residual rate (%) 15 min [2] [%] | Residual rate (%) 30 min [2] [%] | Residual rate (%) 60 min [2] [%] | Residual rate (%) 120 min [2] [%] | IC50 [3] [nM] | Tm (° C.) (human KRAS G12C protein) [°C] | ΔTm at 10 µM (human KRAS G12C protein) [°C] | IC50 [4] [nM] | other results
C=CC(=O)N1CCN(c2nc(=O)n(-c3c(C)ccnc3C(C)C)c3nc(-c4c(O)cccc4F)c(F)cc23)[C@@H](C)C1 [AMG 510, reference compound] | 100.00 | 98.88 | 101.14 | 93.43 | 91.92 | 100.00 | 100.85 | 93.03 | 77.54 | 56.77 | – | – | – | – | Residual rate (%) 0 min (in vitro; human, 0.5 μM): 100.00%; Residual rate (%) 15 min (in vitro; human, 0.5 μM): 93.77%; Residual rate (%) 30 min (in vitro; human, 0.5 μM): 85.72%; Residual rate (%) 60 min (in vitro; human, 0.5 μM): 82.51%; Residual rate (%) 120 min (in vitro; human, 0.5 μM): 64.44%; Residual rate (%) 0 min (in vitro; mouse plasma, 37° C.): 100.00%; Residual rate (%) 15 min (in vitro; mouse plasma, 37° C.): 97.50%; Residual rate (%) 30 min (in vitro; mouse plasma, 37° C.): 82.58%; Residual rate (%) 60 min (in vitro; mouse plasma, 37° C.): 81.82%; Residual rate (%) 120 min (in vitro; mouse plasma, 37° C.): 63.23%
C=CC(=O)N1C[C@H](C)N(c2nc(=O)n(-c3c(SC)ccnc3C(C)C)c3nc(-c4c(O)cccc4F)c(F)cc23)C[C@H]1C [Embodiment 114, 4-((2S, 5R)-4-acryloyl-2,5-dimethylpiperazin-1-yl)-6-fluoro-7-(2-fluoro-6-hydroxyphenyl)-1-(2-isopropyl-4-(methylthio)pyridin-3-yl) pyrido [2,3-d] pyrimidin-2 (1H)-one] | – | – | – | – | – | – | – | – | – | – | 50 | 57.2 | 8.5 | 43 | AUC(0-inf) (in vivo): 1290 ng·h/mL; Cmax (in vivo): 1530 ng/mL; MRT (in vivo): 42 min; Tmax (in vivo): 15 min; half-life (in vivo): 36 min
C=CC(=O)N1CCN(c2nc(=O)n(-c3c(SC)cc(C)nc3C(C)C)c3nc(-c4c(O)cccc4F)c(F)cc23)[C@@H](C)C1 [Embodiment 152, 4-((S)-4-acryloyl-2-methylpiperazin-1-yl)-6-fluoro-7-(2-fluoro-6-hydroxyphenyl)-1-(2-isopropyl-6-methyl-4-(methylthio)pyridin-3-yl) pyrido [2,3-d] pyrimidin-2 (1H)-one] | – | – | – | – | – | – | – | – | – | – | 45 | 60.0 | 11.4 | 91 | –
C=CC(=O)N1CCN(c2nc(=O)n(-c3c(S(C)(=O)=O)ccnc3C(C)C)c3nc(-c4c(O)cccc4F)c(Cl)cc23)[C@@H](C)C1 [Embodiment 155, 4-((S)-4-acryloyl-2-methylpiperazin-1-yl)-6-chloro-7-(2-fluoro-6-hydroxyphenyl)-1-(2-isopropyl-4-(methylsulfonyl)pyridin-3-yl) pyrido [2,3-d] pyrimidin-2 (1H)-one] | – | – | – | – | – | – | – | – | – | – | 24 | 60.9 | 11.1 | 26 | –
C=CC(=O)N1C[C@H](C)N(c2nc(=O)n(-c3c(SC)ccnc3C(C)C)c3nc(-c4c(N)ccc(Cl)c4F)c(Cl)cc23)C[C@H]1C [Embodiment 165, 4-((2S, 5R)-4-acryloyl-2,5-dimethylpiperazin-1-yl)-7-(6-amino-3-chloro-2-fluorophenyl)-6-chloro-1-(2-isopropyl-4-(methylthio)pyridin-3-yl) pyrido [2,3-d] pyrimidin-2 (1H)-one] | – | – | – | – | – | – | – | – | – | – | 5.9 | 58.0 | 11 | 7.6 | –
CC[C@H](C)C(=O)O[C@H]1C[C@@H](C)C=C2C=C[C@H](C)[C@H](CC[C@@H]3C[C@@H](O)CC(=O)O3)[C@H]21 [Lovastatin, reference compound] | 100.00 | 95.25 | 95.45 | 75.66 | 36.25 | 100.00 | 21.15 | 1.77 | 0.36 | 0.30 | – | – | – | – | t1/2 [1]: 80.22 min; t1/2 [2]: 6.69 min
